Data reported in ChEMBL document CHEMBL3779829, “Tandem virtual screening targeting the SRA domain of UHRF1 identifies a novel chemical tool modulating DNA methylation” (Eur J Med Chem, 2016).
Active and inactive are the calls of the source. The calls are words filed in the database; no cut-off is given here.

Assays:
Type in all cases: cell-based
[1] = biological target: T1, E3 ubiquitin-protein ligase UHRF1 (Homo sapiens) (UniProt Q96T88); test: Inhibition of UHRF1 in human MCF7 cells assessed as decrease in methylation at RAR beta exon at 15 uM after 72 hrs by methylation specific-PCR method
T1 sequence (whole entry): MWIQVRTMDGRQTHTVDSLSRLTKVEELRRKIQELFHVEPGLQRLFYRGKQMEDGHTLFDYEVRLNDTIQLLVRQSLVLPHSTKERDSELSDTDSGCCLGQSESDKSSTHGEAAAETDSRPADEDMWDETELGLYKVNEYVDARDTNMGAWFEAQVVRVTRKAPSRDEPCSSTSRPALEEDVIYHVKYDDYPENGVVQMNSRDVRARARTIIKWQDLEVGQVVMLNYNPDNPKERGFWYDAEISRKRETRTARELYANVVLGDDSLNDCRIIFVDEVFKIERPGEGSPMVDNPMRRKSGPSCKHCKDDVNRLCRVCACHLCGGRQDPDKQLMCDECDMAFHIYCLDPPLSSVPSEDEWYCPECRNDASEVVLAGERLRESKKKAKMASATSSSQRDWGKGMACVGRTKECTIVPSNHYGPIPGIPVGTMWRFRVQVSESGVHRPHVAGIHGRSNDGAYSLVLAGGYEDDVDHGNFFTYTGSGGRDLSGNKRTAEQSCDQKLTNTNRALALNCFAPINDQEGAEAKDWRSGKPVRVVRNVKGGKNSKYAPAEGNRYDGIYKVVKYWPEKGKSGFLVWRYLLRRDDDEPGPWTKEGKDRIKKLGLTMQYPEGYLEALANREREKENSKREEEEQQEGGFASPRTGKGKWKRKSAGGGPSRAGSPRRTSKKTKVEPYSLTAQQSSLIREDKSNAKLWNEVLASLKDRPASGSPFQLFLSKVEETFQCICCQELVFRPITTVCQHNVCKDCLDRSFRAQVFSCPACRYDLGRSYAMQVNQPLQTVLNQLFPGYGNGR

[2] = biological target: T1, E3 ubiquitin-protein ligase UHRF1 (Homo sapiens); test: Inhibition of UHRF1 in human MCF7 cells assessed as DNA global demethylation by measuring 5-methylcytosine level at 15 uM after 72 hrs by HPLC-MS/MS analysis (reference value: 1.7 +/- 0.36%); set-up: scale not given: the % may be the effect or the level left
[3] = biological target: T1, E3 ubiquitin-protein ligase UHRF1 (Homo sapiens); test: Inhibition of UHRF1 in human MCF7 cells assessed as reduction in global 5-methylcytosine level at 15 uM after 72 hrs by HPLC-MS/MS analysis relative to control
[4] = biological target: T1, E3 ubiquitin-protein ligase UHRF1 (Homo sapiens); test: Inhibition of UHRF1/DNMT1 protein interaction in human U251 cells at 15 uM after 4 hrs by DAPI staining based P-LISA; settings: U-251
[5] = biological target: T1, E3 ubiquitin-protein ligase UHRF1 (Homo sapiens); test: Inhibition of UHRF1/DNMT1 protein interaction in human U251 cells assessed as reduction in 5-methylcytosine level at 15 uM after 72 hrs by ELISA relative to control; settings: U-251

For `CC(=O)c1c[nH]c(=O)[nH]c1=O`, the “RAR beta exon methylation decrease (activity call)” value (from here on “RAR beta exon methylation decrease”) [1] was “Active”, the Activity [2] was 0.74% and the inhibition [3] was 56%.

With `O=C1NC(=O)C2(CC2)C(=O)N1` the inhibition [1] was “Active” and the Activity [2] was 0.82%.

`C/C(NO)=C1\C=NC(=O)NC1=O` was tested, and the inhibition [4] was 50% and the inhibition [5] was 50%.

With `Nc1ncn([C@@H]2O[C@H](CO)[C@@H](O)[C@H]2O)c(=O)n1` the “RAR beta exon methylation decrease” value [1] was “Active”, the Activity [2] was 0.88% and the inhibition [3] was 48%.

In the case of `CCOC(=O)c1cnc(=O)[nH]c1N`, the “RAR beta exon methylation decrease” value [1] is reported as “Active” and the Activity [2] is reported as 0.87%.

`CN(C)c1c[nH]c(=O)[nH]c1=O` was tested, and the “RAR beta exon methylation decrease” value [1] was “Active” and the Activity [2] was 0.86%.

With `c1ccc2c(C3CCN(CCN4CCOCC4)C3)c[nH]c2c1` (stereo unspecified) the “RAR beta exon methylation decrease” value [1] was “Active” and the Activity [2] was 0.99%.
